Results: paper PMC10610545, “Preclinical Evaluation of an Imidazole-Linked Heterocycle for Alzheimer’s Disease” (Pharmaceutics, 2023)

Assays:
[1] = test system: human dopaminergic cell line SH-SY5Y; assay: Cytotoxicity of compounds alone, MTT assay, SH-SY5Y; format: cell-based; settings: 24 h, escalating concentrations
Protocol: (§1) In the study of neurotoxicity associated with AD, the HT22 mouse hippocampal neuronal cell line has been recognized as an effective cell model. HT22 cells were purchased from Merck-Sigma-Aldrich (SCC12, Madrid, Spain) and cultured in DMEM-F12 (Gibco, Fisher Scientific, Madrid, Spain) supplemented with foetal bovine serum (FBS, 10%) and 1% penicillin/streptomycin under standard conditions (37 °C, 5% CO2). The human dopaminergic cell line SH-SY5Y, in turn, has been widely used as an in vitro model to study the pathogenesis of PD associated with dopaminergic degeneration. Cells, acquired from the American Type Culture Collection (ATCC, Rockville, MD, USA, Ref.CRL-2266), were grown in RPMI medium (Gibco) supplemented with glutamine (2 mM), 10% FBS, and 1% penicillin/streptomycin under standard conditions. Semiconfluent cells (90%) were seeded on 96-well plates at 3 × 10^4 per well and incubated for 24 h before treatment.
(§2) Neuronal cultures, HT-22 and SH-SY5Y, seeded on 96-well plates were treated with LSL33, LSL34, and LSL60101 for 24 h, and viability was assessed using the MTT assay. […] Then, cultures were treated for 1h with LSL33 at 2 μM and LSL34 and LSL60101 at 1 μM. This dose was chosen based on previous studies. Subsequently, HT-22 cultures were exposed to glutamate (10 mM, Merck-Sigma), while SH-SY5Y cultures received 6-hydroxydopamine (6-OHDA, 35 μM, Merck-Sigma). The cells were then incubated for a minimum of 16 h. Finally, the cellular viability and nitrite production of the cultures were assessed.
The assessment of cell viability was conducted using the 3-(4,5-dimethylthiazol-2-yl)-5-(3-carboxymethoxyphenyl)-2-(4-sulfophenyl)-2H-tetrazolium (MTT) assay, following the instructions provided by the manufacturer (Roche Diagnostic, Darmstadt, Germany). […] The absorbance of the solution was measured at 595–650 nm using a spectrophotometer. The experiments were performed at least three times, and the results were expressed as a percentage of the control. […]

HT-22 hippocampal cells = assay: Glutamate-induced damage in HT-22 cells (MTT viability, Griess nitrite); format: cell-based, mouse; settings: HT-22, 10 mM glutamate; for neuroprotection (cell viability, MTT): 1 h pretreatment, LSL33 2 μM, LSL34 and LSL60101 1 μM; for nitrite production: culture supernatant
Protocol: as §1, §2
(§3) The assessment of cell viability was conducted using the 3-(4,5-dimethylthiazol-2-yl)-5-(3-carboxymethoxyphenyl)-2-(4-sulfophenyl)-2H-tetrazolium (MTT) assay, following the instructions provided by the manufacturer (Roche Diagnostic, Darmstadt, Germany). Briefly, after exposure to glutamate or 6-OHDA, the cell culture medium was replaced with 100 μL of fresh culture medium containing MTT solution (0.5 mg/mL) and incubated for 1 h. The medium was then removed, and the resulting formazan crystals were dissolved in dimethylsulfoxide (DMSO, Merck-Sigma). The absorbance of the solution was measured at 595–650 nm using a spectrophotometer. The experiments were performed at least three times, and the results were expressed as a percentage of the control.
(§4) Following the designated treatments, 100 μL of the cell culture supernatant was mixed with an equal volume of Griess reagent (consisting of 1% sulfanylamide and 0.1% naphthyl ethylene diamine in 5% phosphoric acid, sourced from Sigma-Aldrich, Madrid, Spain) at room temperature for 15 min. To determine the nitrite concentrations, a standard solution of sodium nitrite was employed. The absorbance of the mixture was measured at 492/540 nm using a microplate reader from Thermofisher (Madrid, Spain). The experiments were repeated a minimum of three times.
(§5) Figure 4 In vitro screening of I2-IR ligands: Assessment of neuroprotective and anti-inflammatory effects HT-22 cells exposed to 10mM glutamate for at least 16 h Similarly, SH-SY5Y was damaged with 35 μM 6-OHDA (35 μM). Some cultures were pretreated with the I2-IR ligands. Cell viability was evaluated using the MTT assay, and nitrite production in the cell supernatant was quantified using the Griess reaction. The reported values represent the mean ± SD obtained from triplicate determinations repeated at least three times. Statistical analysis was performed: * p ≤ 0.05, ** p ≤ 0.01, *** p ≤ 0.001 (versus glutamate- or 6-OHDA-treated cultures); ^# p ≤ 0.05, ^### p ≤ 0.001 (versus idazoxan-treated cultures); ^& p ≤ 0.1, ^&&& p ≤ 0.001 (versus 2-BFI-treated cultures).

[2] = test system: SH-SY5Y dopaminergic neurons; assay: 6-OHDA-induced damage in SH-SY5Y cells (MTT viability, Griess nitrite); format: cell-based, human; settings: 35 μM 6-OHDA; for neuroprotection (cell viability, MTT): 1 h pretreatment, LSL33 2 μM, LSL34 and LSL60101 1 μM; for nitrite production: culture supernatant
Protocol: as §1, §2, §3, §4, §5

[3] = test system: glial cells: BV2 (microglia), C6 (astroglia), primary microglial and astroglial cultures; assay: LPS-induced nitrite production in glial cultures (Griess); format: cell-based, mouse, rat; settings: LPS 10 μg/mL, 24 h, ligands at 1 μM
Protocol: PD has been described in the same way. Therefore, we based our in vitro model of neuroinflammation on the use of two established glial cell lines, C6 and BV2, as well as primary glial cultures derived from the mouse cerebral cortex. […] When attaining semiconfluence, glial cells were seeded on 96-well plates at 3 × 10^4/well and incubated for 24 h before treatment. Primary astrocytes and microglia were obtained and cultured following a previously described protocol. In brief, the cerebral cortex was dissected, dissociated, and incubated with 0.25% trypsin and EDTA at 37 °C for 1 h. The tissue was then centrifuged, and the resulting pellet was washed with Hanks’ balanced salt solution (Invitrogen). The cells were plated on non-coated flasks and incubated under standard conditions for a minimum of 7 days. Subsequently, each type of glial cell was isolated to obtain pure cultures. To achieve this, the glial cells in the culture flasks were agitated on an orbital shaker for 4 h at 240 rpm and 37 °C. […]
To determine the inflammatory state, glial cells subcultured in 96-well plates were exposed to lipopolysaccharide (LPS, 10 μg/mL, Sigma). […] After 24 h in culture, nitrite production was evaluated.
as §4, with “To determine the nitrite concentrations, a standard solution of sodium nitrite was employed.” left out, “The experiments were repeated a minimum of three times.” left out
Figure 5 Role of I2-IR ligands in an in vitro model of neuroinflammation. Nitrite production in the supernatant of glial cells was assessed using the Griess reaction after a 24 h exposure to lipopolysaccharide (LPS, 10 μg/mL) in the presence of the indicated I2-IR ligands at a concentration of 1 μM. […]

I2-IR = settings: rat cerebral cortex, 1 µM yohimbine; >50% considered significant

Row | Structure (SMILES) | cytotoxicity (MTT viability) [1] | neuroprotection (cell viability, MTT) (HT-22 hippocampal cells) | nitrite production (HT-22 hippocampal cells) | neuroprotection (cell viability, MTT) [2] | nitrite production [2] | nitrite levels [3] | inhibition of [3H]idazoxan binding (I2-IR) [%]
1 | Cl.c1ccc2sc(-c3ncc[nH]3)cc2c1 [LSL33, 2-(Benzo[b]thiophene-2-yl)-1H-imidazole hydrochloride] | None of the compounds tested were cytotoxic | potent neuroprotective effects | significant attenuation of the increased nitrite production | potent neuroprotective effects | significant attenuation of the increased nitrite production | notable reduction in nitrite levels | 84
2 | Cl.c1ccc2oc(-n3ccnc3)cc2c1 [LSL34, 1-(Benzofuran-2-yl)-1H-imidazole hydrochloride] | None of the compounds tested were cytotoxic | potent neuroprotective effects | significant attenuation of the increased nitrite production | potent neuroprotective effects | significant attenuation of the increased nitrite production | notable reduction in nitrite levels | 53
3 | c1ccc2oc(-c3ncc[nH]3)cc2c1 [LSL60101, reference compound] | None of the compounds tested were cytotoxic | potent neuroprotective effects | significant attenuation of the increased nitrite production | potent neuroprotective effects | significant attenuation of the increased nitrite production | notable reduction in nitrite levels | –
